Laboratory results: PMC5520492, “Inhibition of DNA2 nuclease as a therapeutic strategy targeting replication stress in cancer cells” (Oncogenesis, 2017)

Key:
Bloom syndrome (BLM) = target: T1, Bloom syndrome (BLM) (Homo sapiens, UniProt P54132); test: dsDNA unwinding by BLM; type: biochemical; conditions: 10 µM
T1 construct: made in house
Description: Figure S2. […] (a) Analysis of 5’ flap processing by hDNA2 in presence of the compounds at the indicated concentration. DNA2 (2.5 nM) was incubated with the Y DNA substrate (5 nM ends) and the indicated concentration of inhibitor. (b) Plots showing quantitation of the experiments shown in a. Plotted are the average data from three independent experiments with the error bars representing one standard deviation. (c) Analysis of dsDNA unwinding by BLM. BLM (4, 8 and 16 nM), RPA (100 nM) and internally radiolabelled dsDNA (0.5 nM ends) was incubated for 20 min at 37^ºC in presence of either DMSO or NSC-105808 (10 µM) and the products were resolved on a 1% agarose gel. (d) Plots showing quantitation of the experiments shown in c. Plotted are the average data from three independent experiments with the error bars representing one standard deviation. (e) Analysis of the degradation of a 2 kb internally labeled dsDNA (0.5 nM ends) by EXO1 (5 nM) in presence of NSC-105808 (10 µM). (f) Plot showing quantitation of the experiment in e. […] 100 nM hDNA2 was incubated with γ^32P-ATP in the presence of oligonucleotide ssDNA (200 nM) for 20 minutes at 37^ºC in presence of either DMSO or inhibitor (10 µM) and the products were resolved on a TLC plate. (h) Analysis of hDNA2 binding to DNA. […]

EXO1 = target: T2, EXO1 (Homo sapiens, UniProt Q9UQ84); test: EXO1 nuclease assay (2 kb dsDNA degradation); type: biochemical; conditions: 10 µM; EXO1 5 nM
T2 construct: made in house
T2 sequence (Q9UQ84 1-846): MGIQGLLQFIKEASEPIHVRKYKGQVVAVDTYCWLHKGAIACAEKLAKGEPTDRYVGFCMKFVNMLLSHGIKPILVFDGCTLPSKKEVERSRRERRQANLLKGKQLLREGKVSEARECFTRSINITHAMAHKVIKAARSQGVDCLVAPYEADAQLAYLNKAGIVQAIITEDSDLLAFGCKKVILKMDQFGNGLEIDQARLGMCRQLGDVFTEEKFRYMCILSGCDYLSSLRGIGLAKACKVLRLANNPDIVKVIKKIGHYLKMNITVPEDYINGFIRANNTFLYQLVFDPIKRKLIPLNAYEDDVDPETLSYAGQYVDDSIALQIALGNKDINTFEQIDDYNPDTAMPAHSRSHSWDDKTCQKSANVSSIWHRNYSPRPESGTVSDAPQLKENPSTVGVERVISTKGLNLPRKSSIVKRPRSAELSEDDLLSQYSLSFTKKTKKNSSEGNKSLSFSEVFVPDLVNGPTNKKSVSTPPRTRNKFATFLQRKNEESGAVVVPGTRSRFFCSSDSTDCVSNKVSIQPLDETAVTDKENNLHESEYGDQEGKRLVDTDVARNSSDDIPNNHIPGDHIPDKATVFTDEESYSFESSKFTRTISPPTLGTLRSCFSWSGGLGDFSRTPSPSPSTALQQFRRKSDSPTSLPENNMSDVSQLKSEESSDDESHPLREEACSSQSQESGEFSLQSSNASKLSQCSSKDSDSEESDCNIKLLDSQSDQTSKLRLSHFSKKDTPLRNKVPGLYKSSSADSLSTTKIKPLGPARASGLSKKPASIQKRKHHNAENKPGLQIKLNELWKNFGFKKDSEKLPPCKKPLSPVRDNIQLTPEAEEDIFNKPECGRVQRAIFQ
Description: Nuclease assays were performed in buffer R (20 mM Na-HEPES pH 7.5, 1 mM ATP, 0.1 mM DTT, 100 μg/ml bovine serum albumin, 0.05% Triton X-100, 2 mM MgCl2, 100 mM KCl) and contained 0.5 nM ends (2-kb substrate) or 5 nM ends (the ssDNA oligonucleotide PSOL6929) of DNA. Reactions containing Bloom syndrome also included an ATP regenerating system consisting of 10 mM creatine phosphate and 50 μg/ml creatine kinase. In control reactions, DMSO was used in place of the inhibitor. Reactions with DNA2 alone were incubated at 30 °C, and those with DNA2-Bloom syndrome-Replication protein A and EXO1 were incubated at 37 °C for the indicated times. […] Gels were dried onto DEAE paper on top of Whatman filter paper (GE, Issaquah, WA, USA) and then analyzed in a BioRad Personal Molecular Imager FX phosphorimager. Band intensity was quantified using Image Lab software (Bio-Rad, Hercules, CA, USA). The fraction of DNA substrate digested was determined by measuring the amount of substrate remaining and normalizing to the total substrate in the negative control lane containing no protein.
Figure S2. […] (b) Plots showing quantitation of the experiments shown in a. […] (d) Plots showing quantitation of the experiments shown in c. […] (f) Plot showing quantitation of the experiment in e. […]

FANCD2−/− cells = test: Colony formation with cisplatin in FANCD2-deficient cells; type: cell-based; conditions: cisplatin 0.3125 µM, NSC-105808 […]
Description: Figure 4 NSC-105808 inhibits HR repair and DSB end resection. (a) Analysis of HR efficiency with the DR-green fluorescent protein (GFP) assay. Representative images of flow cytometry analysis and bar graph showing percentage of GFP cells from at least three independent experiments. Each value represents the mean±s.d. (b, c) Analysis of RPA phosphorylation in U2OS cells treated with NSC-105808 (2 h, 0.3 μM) and/or camptothecin (CPT; 2 h, 1 μM). (b) Representative images of cells subjected to immunofluorescent staining of p-RPA and bar graph showing percentage of cells with positive p-RPA staining from three independent experiments. Each value represents the mean±s.d. (c) Western blot analysis of chromatin fraction with the indicated antibodies. (d) Analysis of colony formation by FANCD2 (+/+) and FANCD2 (−/−) cells treated with cisplatin and/or NSC-105808. Each value is relative to the untreated control group of each cell line. The graph represents the mean±s.e.m. from three independent experiments. *P<0.01.
DNA2 knockdown cells were seeded at low density; cells were then left for 2 weeks to allow colonies to form. Cells were stained with 2% methylene blue/50% ethanol, and colonies containing 50 or more cells were counted. […] Colonies were fixed, stained, and scored ten days after treatment.

T1 sequence (P54132 whole entry): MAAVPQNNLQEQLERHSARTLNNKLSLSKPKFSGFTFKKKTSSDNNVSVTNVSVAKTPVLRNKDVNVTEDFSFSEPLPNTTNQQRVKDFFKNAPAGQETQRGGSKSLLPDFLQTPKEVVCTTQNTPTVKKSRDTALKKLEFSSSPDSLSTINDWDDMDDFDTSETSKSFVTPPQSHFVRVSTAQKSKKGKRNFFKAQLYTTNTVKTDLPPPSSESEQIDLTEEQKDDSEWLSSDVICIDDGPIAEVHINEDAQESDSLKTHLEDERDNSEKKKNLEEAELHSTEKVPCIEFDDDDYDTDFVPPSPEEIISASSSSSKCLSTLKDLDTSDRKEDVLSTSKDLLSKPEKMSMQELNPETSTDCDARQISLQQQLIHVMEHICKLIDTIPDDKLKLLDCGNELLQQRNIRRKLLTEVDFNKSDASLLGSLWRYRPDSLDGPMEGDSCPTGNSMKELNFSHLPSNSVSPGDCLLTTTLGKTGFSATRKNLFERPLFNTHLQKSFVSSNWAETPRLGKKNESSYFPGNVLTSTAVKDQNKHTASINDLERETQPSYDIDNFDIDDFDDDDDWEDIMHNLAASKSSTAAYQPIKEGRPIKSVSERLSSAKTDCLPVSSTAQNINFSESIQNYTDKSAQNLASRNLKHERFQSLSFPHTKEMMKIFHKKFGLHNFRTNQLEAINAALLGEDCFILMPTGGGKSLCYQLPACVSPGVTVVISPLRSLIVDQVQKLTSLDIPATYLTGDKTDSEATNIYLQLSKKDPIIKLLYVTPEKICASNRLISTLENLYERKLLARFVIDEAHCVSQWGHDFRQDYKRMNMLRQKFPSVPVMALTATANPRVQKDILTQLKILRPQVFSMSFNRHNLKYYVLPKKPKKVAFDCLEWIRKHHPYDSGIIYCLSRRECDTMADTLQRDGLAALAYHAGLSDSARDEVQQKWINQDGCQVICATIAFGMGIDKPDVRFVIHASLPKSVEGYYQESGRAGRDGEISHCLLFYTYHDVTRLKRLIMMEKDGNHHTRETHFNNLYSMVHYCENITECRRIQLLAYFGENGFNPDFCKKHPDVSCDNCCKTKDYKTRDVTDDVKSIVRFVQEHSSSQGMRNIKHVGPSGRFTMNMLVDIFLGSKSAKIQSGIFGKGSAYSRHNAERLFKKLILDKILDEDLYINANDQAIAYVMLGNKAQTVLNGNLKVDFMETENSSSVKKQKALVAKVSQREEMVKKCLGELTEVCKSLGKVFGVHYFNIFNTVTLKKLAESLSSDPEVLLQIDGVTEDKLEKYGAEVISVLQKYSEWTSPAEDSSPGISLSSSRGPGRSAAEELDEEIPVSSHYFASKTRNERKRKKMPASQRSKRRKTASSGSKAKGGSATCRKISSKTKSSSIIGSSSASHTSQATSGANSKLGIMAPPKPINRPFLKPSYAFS

NC1=C(Br)C(=O)c2ncccc2C1=O [NSC-105808, 6-amino-7-bromoquinoline-5,8-dione]
Effect on ability of Bloom syndrome to unwind DNA (Bloom syndrome (BLM)): no effect | Effect on nuclease activity of EXO1 (EXO1): does not inhibit | Cisplatin sensitivity of FANCD2−/− cells (colony formation) (FANCD2−/− cells): lessened the cisplatin sensitivity
